Data from ChEMBL document CHEMBL4665836, “Overcoming β-Lactam resistance in Pseudomonas aeruginosa using non-canonical tobramycin-based antibiotic adjuvants” (2020).

Legend:
Type in all cases: functional
Pseudomonas aeruginosa [1] = experiment: Potentiation of imipenem-induced antibacterial activity against carbapenem-resistant Pseudomonas aeruginosa 88949 clinical isolate assessed as imipenem MIC at 8 uM by checkerboard assay (reference value: 64 ug/ml)
Pseudomonas aeruginosa [2] = experiment: Potentiation of imipenem-induced antibacterial activity against carbapenem and colistin-resistant Pseudomonas aeruginosa 101243 clinical isolate assessed as imipenem MIC at 8 uM by checkerboard assay (reference value: 8 ug/ml)
Pseudomonas aeruginosa [3] = experiment: Potentiation of ceftazidime-induced antibacterial activity against carbapenem-resistant Pseudomonas aeruginosa PAO200 harboring mexAB-oprM efflux deficient mutant assessed as ceftazidime MIC at 8 uM by checkerboard assay (reference value: 1 ug/ml)
Pseudomonas aeruginosa [4] = experiment: Potentiation of ceftazidime-induced antibacterial activity against carbapenem and colistin-resistant Pseudomonas aeruginosa 114228 clinical isolate assessed as ceftazidime MIC at 8 uM by checkerboard assay (reference value: 8 ug/ml)
Pseudomonas aeruginosa [5] = experiment: Potentiation of aztreonam-induced antibacterial activity against carbapenem-resistant Pseudomonas aeruginosa PAO750 harboring mexAB-oprM/mexCD-oprJ/mexEF-oprN/mexJK/mexXY/opmH efflux deficient mutant assessed as aztreonam MIC at 8 uM by checkerboard assay (reference value: 0.5 ug/ml)
Pseudomonas aeruginosa [6] = experiment: Potentiation of aztreonam-induced antibacterial activity against carbapenem-resistant Pseudomonas aeruginosa 107092 clinical isolate assessed as aztreonam MIC at 8 uM by checkerboard assay (reference value: 64 ug/ml)
Pseudomonas aeruginosa [7] = experiment: Potentiation of aztreonam-induced antibacterial activity against carbapenem-resistant Pseudomonas aeruginosa 86052 clinical isolate assessed as aztreonam MIC at 8 uM by checkerboard assay (reference value: 64 ug/ml)
Pseudomonas aeruginosa [8] = experiment: Potentiation of aztreonam-induced antibacterial activity against carbapenem and colistin-resistant Pseudomonas aeruginosa 114228 clinical isolate assessed as aztreonam MIC at 8 uM by checkerboard assay (reference value: 32 ug/ml)
Pseudomonas aeruginosa [9] = experiment: Antibacterial activity against wild type Pseudomonas aeruginosa PAO1
Pseudomonas aeruginosa [10] = experiment: Potentiation of piperacillin-induced antibacterial activity against wild type Pseudomonas aeruginosa PAO1 assessed as fold reduction in piperacillin MIC at 8 uM

| SMILES | MIC (Pseudomonas aeruginosa [1]) | MIC (Pseudomonas aeruginosa [2]) | MIC (Pseudomonas aeruginosa [3]) | MIC (Pseudomonas aeruginosa [4]) | MIC (Pseudomonas aeruginosa [5]) | MIC (Pseudomonas aeruginosa [6]) | MIC (Pseudomonas aeruginosa [7]) | MIC (Pseudomonas aeruginosa [8]) | MIC (Pseudomonas aeruginosa [9]) | fold change (FC) (Pseudomonas aeruginosa [10]) |
| --- | --- | --- | --- | --- | --- | --- | --- | --- | --- | --- |
| NC[C@H]1O[C@H](O[C@H]2[C@H](OCCCCc3cn(CCCCO[C@@H]4[C@@H](O)[C@H](N)C[C@H](N)[C@H]4O[C@H]4O[C@H](CN)[C@@H](O)C[C@H]4N)nn3)[C@@H](O)[C@H](N)C[C@@H]2N)[C@H](N)C[C@@H]1O.O=C(O)C(F)(F)F.O=C(O)C(F)(F)F.O=C(O)C(F)(F)F.O=C(O)C(F)(F)F.O=C(O)C(F)(F)F.O=C(O)C(F)(F)F.O=C(O)C(F)(F)F.O=C(O)C(F)(F)F | 32 µg/mL | 8 µg/mL | 0.25 µg/mL | 1 µg/mL | 0.25 µg/mL | 32 µg/mL | 32 µg/mL | 16 µg/mL | > 128 µg/mL | 2 |
| Cl.Cl.Cl.Cl.Cl.NC[C@H]1O[C@H](O[C@H]2[C@H](OCCCCCCCCCCCCN3CCN(c4cc5c(cc4F)c(=O)c(C(=O)O)cn5C4CC4)CC3)[C@@H](O)[C@H](N)C[C@@H]2N)[C@H](N)C[C@@H]1O | 64 µg/mL | 4 µg/mL | 0.13 µg/mL | 4 µg/mL | 0.13 µg/mL | 32 µg/mL | 4 µg/mL | 8 µg/mL | 32 µg/mL | 2 |
| N=C(N)NC[C@H]1O[C@H](O[C@H]2[C@H](OCCCCCCCCCCCCN3CCN(c4cc5c(cc4F)c(=O)c(C(=O)O)cn5C4CC4)CC3)[C@@H](O[C@H]3O[C@H](CO)[C@@H](O)[C@H](NC(=N)N)[C@H]3O)[C@H](NC(=N)N)C[C@@H]2NC(=N)N)[C@H](NC(=N)N)C[C@@H]1O.O=C(O)C(F)(F)F.O=C(O)C(F)(F)F.O=C(O)C(F)(F)F.O=C(O)C(F)(F)F.O=C(O)C(F)(F)F.O=C(O)C(F)(F)F | 64 µg/mL | 4 µg/mL | 0.25 µg/mL | 2 µg/mL | 0.06 µg/mL | 32 µg/mL | 32 µg/mL | 8 µg/mL | 32 µg/mL | 2 |
